≈ marks a conversion by molar mass, not a printed value. Calls of active or inactive are those of the source. The calls are words filed in the database; no cut-off is given here.
Columns and labels:
[1] = test system: Mycobacterium tuberculosis; experiment: Antitubercular activity against Mycobacterium tuberculosis H37Rv (ATCC 25618) incubated for […] by MABA assay; assay type: functional
[2] = molecular target: T1, Decaprenylphosphoryl-beta-D-ribose oxidase (Mycobacterium tuberculosis (strain ATCC 25618 / H37Rv)) (UniProt P9WJF1); experiment: Time-dependent covalent inhibition of recombinant Mycobacterium tuberculosis DprE1 expressed in Escherichia coli by Amplex Red/peroxidase coupled assay
T1 sequence (whole entry): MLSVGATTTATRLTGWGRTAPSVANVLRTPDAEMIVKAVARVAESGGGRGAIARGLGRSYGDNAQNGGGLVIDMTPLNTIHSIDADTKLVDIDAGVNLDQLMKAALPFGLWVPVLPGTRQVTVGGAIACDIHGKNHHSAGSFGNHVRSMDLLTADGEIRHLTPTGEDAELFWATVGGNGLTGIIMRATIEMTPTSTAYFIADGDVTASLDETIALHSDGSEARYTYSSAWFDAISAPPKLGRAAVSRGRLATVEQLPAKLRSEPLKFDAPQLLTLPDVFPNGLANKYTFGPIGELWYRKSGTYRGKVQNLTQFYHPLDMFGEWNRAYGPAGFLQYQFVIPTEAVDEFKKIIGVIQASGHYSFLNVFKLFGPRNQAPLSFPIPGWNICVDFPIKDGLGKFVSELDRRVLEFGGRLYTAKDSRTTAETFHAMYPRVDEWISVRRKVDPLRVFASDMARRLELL

[3] = Tmax in ICR mouse at 25 micromol/kg, po measured after 24 hrs by LC-MS/MS analysis; assay type: ADME, organism-based; settings: in vivo, dose 25 µmol/kg
[4] = Aqueous solubility of the compound in PBS buffer at pH 6.82 incubated for 4 hrs by HPLC analysis; assay type: physicochemical
[5] = MRT in ICR mouse at 25 micromol/kg, po measured after 24 hrs by LC-MS/MS analysis; assay type: ADME, organism-based; settings: in vivo, dose 25 µmol/kg
[6] = Metabolic stability in NADPH-fortified mouse liver microsomes assessed as CYP450-mediated stability incubated for 120 mins by LC/MS analysis; assay type: ADME, Microsome; settings: 2 h
[7] = Protein binding in mouse plasma assessed as unbound fraction incubated for 24 hrs by equilibrium dialysis based LC/MS analysis; assay type: ADME, cell-free
[8] = Cmax in ICR mouse at 25 micromol/kg, po measured after 24 hrs by LC-MS/MS analysis; assay type: ADME, organism-based; settings: in vivo, dose 25 µmol/kg
[9] = Cytotoxicity against mouse hepatic stellate cells at 30 uM incubated for 48 hrs by CCK8 assay; assay type: toxicity, cell-based; settings: hepatic stellate cell
[10] = AUC (0 to 8 hrs) in ICR mouse at 5 micromol/kg, iv by LC-MS/MS analysis; assay type: ADME, organism-based; settings: in vivo, dose 5 µmol/kg; for AUC: iv
HepG2 = experiment: Cytotoxicity against human HepG2 cells at 30 uM incubated for 48 hrs by CCK8 assay; assay type: toxicity, cell-based; settings: hepg2, 48 h
[11] = Volume of distribution at steady state in ICR mouse at 5 micromol/kg, iv measured after 24 hrs by LC-MS/MS analysis; assay type: ADME, organism-based; settings: in vivo, dose 5 µmol/kg, read-out: Vdss
[12] = Elimination half life in ICR mouse at 5 micromol/kg, iv measured after 24 hrs by LC-MS/MS analysis; assay type: ADME, organism-based; settings: in vivo, dose 5 µmol/kg, read-out: beta t1/2 (converted)
[13] = AUC (0 to 24 hrs) in ICR mouse at 25 micromol/kg, po by LC-MS/MS analysis; assay type: ADME, organism-based; settings: in vivo, dose 25 µmol/kg; for AUC: po
[14] = MRT in ICR mouse at 5 micromol/kg, iv measured after 24 hrs by LC-MS/MS analysis; assay type: ADME, organism-based; settings: in vivo, dose 5 µmol/kg
[15] = Oral bioavailability in ICR mouse at 25 micromol/kg measured after 24 hrs by LC-MS/MS analysis; assay type: ADME, organism-based; settings: in vivo; for F: po, 24 h, at 25 µmol/kg
[16] = Elimination half life in ICR mouse at 25 micromol/kg, po measured after 24 hrs by LC-MS/MS analysis; assay type: ADME, organism-based; settings: in vivo, dose 25 µmol/kg, read-out: beta t1/2 (converted)
[17] = Drug concentration in ICR mouse plasma at 5 micromol/kg, iv measured after 5 mins by LC-MS/MS analysis; assay type: ADME, organism-based; settings: dose 5 µmol/kg
[18] = test system: Mycobacterium tuberculosis; experiment: Antitubercular activity against Mycobacterium tuberculosis H37Rv infected in BALB/c mouse assessed as log reduction in colony formation in lung at 50 mg/kg, po administered for 6 weeks; assay type: functional
[19] = Total plasma clearance in ICR mouse at 5 micromol/kg, iv measured after 24 hrs by LC-MS/MS analysis; assay type: ADME, organism-based; settings: dose 5 µmol/kg
[20] = Metabolic stability in NADPH-fortified human liver microsomes assessed as CYP450-mediated stability incubated for 120 mins by LC/MS analysis; assay type: ADME, Microsome; settings: 2 h
[21] = molecular target: T2, Decaprenylphosphoryl-beta-D-ribose oxidase (Mycobacterium tuberculosis (strain ATCC 25618 / H37Rv), UniProt P9WJF1); experiment: Inhibition of recombinant Mycobacterium tuberculosis DprE1 expressed in Escherichia coli measured after 120 mins by Amplex Red/peroxidase coupled assay
T2 sequence (P9WJF1 whole entry): T1 sequence (whole entry)

CN(C/C=C/C1CCCC1)c1nc(=O)c2cc(C(F)(F)F)cc([N+](=O)[O-])c2s1
MIC [1]: 0.002 µM (≈ 0.000827 µg/mL)

CN(CC#CC1CCCC1)c1nc(=O)c2cc(C(F)(F)F)cc([N+](=O)[O-])c2s1
MIC [1]: 0.005 µM (≈ 0.00206 µg/mL)

CN(Cc1cn(-c2ccccc2)nn1)c1nc(=O)c2cc(S(C)(=O)=O)cc([N+](=O)[O-])c2s1
MIC [1]: 0.047 µM (≈ 0.0222 µg/mL)

CN(CC#CCN1CCS(=O)(=O)CC1)c1nc(=O)c2cc(C(F)(F)F)cc([N+](=O)[O-])c2s1
MIC [1]: 0.867 µM (≈ 0.425 µg/mL)

CN(CC#CCN1CCSC1)c1nc(=O)c2cc(C(F)(F)F)cc([N+](=O)[O-])c2s1
MIC [1]: 0.029 µM (≈ 0.0129 µg/mL)

CN(CC#CCc1ccccc1)c1nc(=O)c2cc(C(F)(F)F)cc([N+](=O)[O-])c2s1
MIC [1]: 0.053 µM (≈ 0.023 µg/mL) | TDI [2]: Active

CN(CC#Cc1cncs1)c1nc(=O)c2cc(C(F)(F)F)cc([N+](=O)[O-])c2s1
MIC [1]: 0.129 µM (≈ 0.055 µg/mL)

CN(C/C=C\C1CC1)c1nc(=O)c2cc(C(F)(F)F)cc([N+](=O)[O-])c2s1
MIC [1]: 0.042 µM (≈ 0.0162 µg/mL)

CN(CC#Cc1cccc(C#N)c1)c1nc(=O)c2cc(C(F)(F)F)cc([N+](=O)[O-])c2s1
MIC [1]: 0.029 µM (≈ 0.0129 µg/mL)

CN(C/C=C\c1ccccc1)c1nc(=O)c2cc(C(F)(F)F)cc([N+](=O)[O-])c2s1
MIC [1]: 0.045 µM (≈ 0.019 µg/mL) | TDI [2]: Active

CN(CC#CC(O)CN1CCCCC1)c1nc(=O)c2cc(C(F)(F)F)cc([N+](=O)[O-])c2s1 (stereo not drawn)
MIC [1]: 1.05 µM (≈ 0.493 µg/mL)

CN(C/C=C/C1CCCCC1)c1nc(=O)c2cc(C(F)(F)F)cc([N+](=O)[O-])c2s1
MIC [1]: 0.002 µM (≈ 0.000855 µg/mL)

CN1CCC(O)(C#CCN(C)c2nc(=O)c3cc(C(F)(F)F)cc([N+](=O)[O-])c3s2)CC1
MIC [1]: 16.9 µM (≈ 7.72 µg/mL)

CN(CC#CCN1CCCC1)c1nc(=O)c2cc(C(F)(F)F)cc([N+](=O)[O-])c2s1
MIC [1]: 0.378 µM (≈ 0.161 µg/mL)

CN(C)CCc1ccc(C#CCN(C)c2nc(=O)c3cc(C(F)(F)F)cc([N+](=O)[O-])c3s2)cc1
MIC [1]: 1.01 µM (≈ 0.495 µg/mL)

CN(CC#Cc1ccc(F)cc1)c1nc(=O)c2cc(C(F)(F)F)cc([N+](=O)[O-])c2s1
MIC [1]: 0.013 µM (≈ 0.00569 µg/mL)

CN(CC#Cc1ccc(F)c(F)c1)c1nc(=O)c2cc(C(F)(F)F)cc([N+](=O)[O-])c2s1
MIC [1]: 0.013 µM (≈ 0.00592 µg/mL)

CN(CC#Cc1cscn1)c1nc(=O)c2cc(C(F)(F)F)cc([N+](=O)[O-])c2s1
Tmax [3]: 1 h | solubility at 4 h [4]: 12.8 µg/mL (≈ 30 µM) | MRT [5]: 7.17 h | Stability [6]: Stable | Fu [7]: 0.65% | MIC [1]: 0.028 µM (≈ 0.0119 µg/mL) | Cmax [8]: 2670 nM | Activity [9]: Non-Toxic | AUC [10]: 4.66345 µM·h | Activity (HepG2): Non-Toxic | Vd [11]: 0.59 L/kg | half-life [12]: 0.84 h | AUC [13]: 18.99661 µM·h | MRT [14]: 1.05 h | F [15]: 37.13% | half-life [16]: 4.77 h | concentration at 5 min [17]: 10300 nM | Activity [18]: ~2 log10CFU | clearance [19]: 8.5 mL/min/kg | Stability [20]: Stable

CN(CC#Cc1ccc2c(c1)OCCO2)c1nc(=O)c2cc(C(F)(F)F)cc([N+](=O)[O-])c2s1
MIC [1]: 0.092 µM (≈ 0.0439 µg/mL)

CN(CC#Cc1ccccc1F)c1nc(=O)c2cc(C(F)(F)F)cc([N+](=O)[O-])c2s1
MIC [1]: 0.011 µM (≈ 0.00481 µg/mL)

O=c1nc(N2CCN(CC3CCCCC3)CC2)sc2c([N+](=O)[O-])cc(C(F)(F)F)cc12 [MACOZINONE]
Tmax [3]: 0.38 h | solubility at 4 h [4]: 0.01 µg/mL (≈ 0.0219 µM) | MRT [5]: 2.44 h | Fu [7]: 0.46% | MIC [1]: < 0.0004 µM | Cmax [8]: 472 nM | AUC [10]: 1.18766 µM·h | Vd [11]: 5.61 L/kg | half-life [12]: 0.95 h | AUC [13]: 0.80339 µM·h | MRT [14]: 1.42 h | F [15]: 0.65% | half-life [16]: 1.48 h | concentration at 5 min [17]: 1390 nM | clearance [19]: 65.5 mL/min/kg

CN(CC#Cc1ccccc1)c1nc(=O)c2cc(C(F)(F)F)cc([N+](=O)[O-])c2s1
Tmax [3]: 0.9 h | solubility at 4 h [4]: 0.8 µg/mL (≈ 1.91 µM) | MRT [5]: 4.35 h | Stability [6]: Stable | Fu [7]: 0.25% | MIC [1]: 0.007 µM (≈ 0.00294 µg/mL) | Cmax [8]: 1290 nM | Activity [9]: Non-Toxic | AUC(0-t) ([10]; ICR): 23.2 µM·h | Activity (HepG2): Non-Toxic | Vd [11]: 0.25 L/kg | half-life [12]: 1.77 h | AUC(0-t) ([13]; ICR): 5.16 µM·h | MRT [14]: 2.72 h | bioavailability ([15]; ICR, 25 µmol/kg): 4.49% | half-life [16]: 2.95 h | concentration at 5 min [17]: 13500 nM | Activity [18]: <1 log10CFU | clearance [19]: 1.5 mL/min/kg | TDI [2]: Active | Stability [20]: Stable | IC50 [21]: 0.023 µM

From ChEMBL document CHEMBL5528009, “Benzothiozinone derivatives with anti-tubercular Activity-Further side chain investigation” (Eur J Med Chem, 2024)
